From US9131692B2, “Antibacterial imidazolium compound and antibacterial photocurable thiol-ene compositions comprising the same, and antibacterial polymer coatins prepared therefrom” (Korea Institute of Science and Technology, priority 2013, dated 2015)
Counter-ions that a name gives are not always drawn.

Tests used:
Format in all cases: cell-based
[1] = test system: Salmonella typhimurium (ATCC 1331); assay: MIC test of imidazolium salt
[2] = test system: Serratia marcescens (ATCC 27117); assay: MIC test of imidazolium salt
[3] = test system: Moraxella catanhalis (ATCC 25240); assay: MIC test of imidazolium salt
various strains = assay: MIC test of imidazolium salt, overall statement; details: text summary of Table 7; compared with benzoalconium chloride (BKC)

Structure (SMILES): C=CCn1cc[n+](CCCCCCCCCCCC)c1 [ADIm(Br), 1-allyl-3-dodecylimidazolium salt]
- ADIm(Br) concentration at which strain has antibiosis [1]: 1000 µg/mL
- ADIm(Br) concentration at which strain has antibiosis [2]: 1000 µg/mL
- ADIm(Br) concentration at which strain has antibiosis [3]: 1000 µg/mL
- antibacterial activity over various strains (various strains): very excellent antibacterial activity, similar to that of benzoalconium chloride (BKC)
